# Source: ChEMBL document CHEMBL5465560, “Selectivity Literature for EUbOPEN Chemogenomic Library” (2024)
# Columns and labels:
# [1] = molecular target: Serine/threonine-protein kinase 33 (Homo sapiens) (UniProt Q9BYT3); experiment: Selectivity interaction (KinomeScan (DiscoverX)) EUB0000045b STK33
# [2] = molecular target: cAMP-dependent protein kinase catalytic subunit alpha (Homo sapiens, UniProt P17612); experiment: Selectivity interaction (KinomeScan (DiscoverX)) EUB0000695a PRKACA; conditions: at 100 nM
# [3] = molecular target: Citron Rho-interacting kinase (Homo sapiens) (UniProt O14578); experiment: Selectivity interaction (KinomeScan (DiscoverX)) EUB0000666a CIT; conditions: at 10 µM
# [4] = molecular target: Bromodomain-containing protein 2 (Homo sapiens) (UniProt P25440); experiment: Selectivity interaction (Bromodomain panel (DSF asssay)) EUB0000270b BRD2
# [5] = molecular target: Tyrosine-protein kinase JAK1 (Homo sapiens, UniProt P23458); experiment: Selectivity interaction (Kinase panel (Carna Biosciences)) EUB0001542aTs JAK1; conditions: at 1 µM
# [6] = molecular target: Myosin light chain kinase, smooth muscle (Homo sapiens, UniProt Q15746); experiment: Selectivity interaction (KinomeScan (DiscoverX)) EUB0000618a MYLK; conditions: at 10 µM
# D(1A) dopamine receptor = D(1A) dopamine receptor (Homo sapiens, UniProt P21728); experiment: Selectivity interaction (Panel of kinases, GPCRs, ion channels and transporters (enzymatic assay)) EUB0000266bCl DRD1
# [7] = molecular target: T1, Dual specificity mitogen-activated protein kinase kinase 4 (Homo sapiens) (UniProt P45985); experiment: Selectivity interaction (ActivX KiNativ screen (kinase selectivity in THP-1 cell lysates)) EUB0000639a MAP2K4; assay type: subcellular; conditions: lysate, at 1 µM
# T1 sequence (whole entry): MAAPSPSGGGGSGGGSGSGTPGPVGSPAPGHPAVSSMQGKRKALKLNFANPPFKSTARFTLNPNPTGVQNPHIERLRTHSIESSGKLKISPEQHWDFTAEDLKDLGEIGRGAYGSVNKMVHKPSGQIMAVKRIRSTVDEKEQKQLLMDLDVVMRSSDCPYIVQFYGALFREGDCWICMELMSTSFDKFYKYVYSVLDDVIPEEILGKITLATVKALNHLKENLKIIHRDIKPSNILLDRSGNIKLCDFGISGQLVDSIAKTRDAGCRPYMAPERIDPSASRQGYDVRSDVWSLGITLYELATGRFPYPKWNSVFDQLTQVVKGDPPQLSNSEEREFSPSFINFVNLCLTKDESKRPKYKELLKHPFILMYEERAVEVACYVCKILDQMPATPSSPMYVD
# [8] = molecular target: Phosphatidylinositol 4-phosphate 3-kinase C2 domain-containing subunit beta (Homo sapiens) (UniProt O00750); experiment: Selectivity interaction (Kinase panel (Invitrogen)) EUB0000639a PIK3C2B; conditions: at 200 nM
# [9] = molecular target: T2, Serine/threonine-protein kinase ULK1 (Homo sapiens) (UniProt O75385); experiment: Selectivity interaction (ActivX KiNativ screen (kinase selectivity in THP-1 cell lysates)) EUB0000639a ULK1; assay type: subcellular; conditions: lysate, at 5 µM
# T2 sequence (whole entry): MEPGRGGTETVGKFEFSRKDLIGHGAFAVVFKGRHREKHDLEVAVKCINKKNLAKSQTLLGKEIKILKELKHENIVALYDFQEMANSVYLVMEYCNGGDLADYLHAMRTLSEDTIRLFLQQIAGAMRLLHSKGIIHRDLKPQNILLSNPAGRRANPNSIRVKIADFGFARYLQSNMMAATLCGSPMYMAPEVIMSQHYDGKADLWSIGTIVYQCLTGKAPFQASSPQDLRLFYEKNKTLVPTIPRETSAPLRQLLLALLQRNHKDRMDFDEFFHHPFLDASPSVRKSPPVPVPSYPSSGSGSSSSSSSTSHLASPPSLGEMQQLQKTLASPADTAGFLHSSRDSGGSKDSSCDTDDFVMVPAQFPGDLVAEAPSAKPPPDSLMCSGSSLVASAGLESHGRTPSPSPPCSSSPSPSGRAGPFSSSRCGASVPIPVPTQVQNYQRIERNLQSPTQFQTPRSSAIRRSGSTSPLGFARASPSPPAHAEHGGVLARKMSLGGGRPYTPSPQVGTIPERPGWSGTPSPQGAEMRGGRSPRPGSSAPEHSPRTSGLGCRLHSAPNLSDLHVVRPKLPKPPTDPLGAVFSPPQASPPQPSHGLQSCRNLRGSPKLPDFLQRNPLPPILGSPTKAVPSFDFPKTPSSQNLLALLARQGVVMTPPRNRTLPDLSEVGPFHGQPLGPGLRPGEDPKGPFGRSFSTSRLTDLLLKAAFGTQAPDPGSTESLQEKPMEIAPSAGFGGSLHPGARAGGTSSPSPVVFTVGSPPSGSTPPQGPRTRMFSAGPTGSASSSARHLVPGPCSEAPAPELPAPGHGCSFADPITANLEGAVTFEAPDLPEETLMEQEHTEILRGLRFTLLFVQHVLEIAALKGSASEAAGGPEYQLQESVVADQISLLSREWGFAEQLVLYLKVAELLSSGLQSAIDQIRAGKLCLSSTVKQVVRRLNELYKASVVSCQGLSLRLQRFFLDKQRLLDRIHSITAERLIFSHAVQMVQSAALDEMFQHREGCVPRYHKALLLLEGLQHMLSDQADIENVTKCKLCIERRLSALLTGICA
# [10] = molecular target: T3, 3-phosphoinositide-dependent protein kinase 1 (Homo sapiens) (UniProt O15530); experiment: Selectivity interaction (Ambit KINOMEscan and KiNATiv profiling in Jurkat cells) EUB0000090b PDPK1; assay type: cell-based; conditions: at 1 µM
# T3 sequence (whole entry): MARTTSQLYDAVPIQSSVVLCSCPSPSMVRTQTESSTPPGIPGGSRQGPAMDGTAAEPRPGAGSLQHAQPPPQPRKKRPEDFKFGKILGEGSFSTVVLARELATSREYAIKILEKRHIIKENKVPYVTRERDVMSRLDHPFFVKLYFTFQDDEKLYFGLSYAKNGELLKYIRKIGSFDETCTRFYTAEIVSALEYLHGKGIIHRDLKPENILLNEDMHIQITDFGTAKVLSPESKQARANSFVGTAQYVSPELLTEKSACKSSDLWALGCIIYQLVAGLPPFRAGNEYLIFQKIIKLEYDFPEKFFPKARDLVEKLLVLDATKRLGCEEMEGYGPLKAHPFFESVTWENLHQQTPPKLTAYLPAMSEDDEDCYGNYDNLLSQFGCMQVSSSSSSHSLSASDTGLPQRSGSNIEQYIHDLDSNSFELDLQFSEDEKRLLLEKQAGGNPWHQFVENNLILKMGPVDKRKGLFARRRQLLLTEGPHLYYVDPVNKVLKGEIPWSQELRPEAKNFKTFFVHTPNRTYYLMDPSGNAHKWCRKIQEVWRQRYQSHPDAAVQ
# Chain of Serine/threonine-protein kinase 33 (Homo sapiens) (Q9BYT3 whole entry, looked up): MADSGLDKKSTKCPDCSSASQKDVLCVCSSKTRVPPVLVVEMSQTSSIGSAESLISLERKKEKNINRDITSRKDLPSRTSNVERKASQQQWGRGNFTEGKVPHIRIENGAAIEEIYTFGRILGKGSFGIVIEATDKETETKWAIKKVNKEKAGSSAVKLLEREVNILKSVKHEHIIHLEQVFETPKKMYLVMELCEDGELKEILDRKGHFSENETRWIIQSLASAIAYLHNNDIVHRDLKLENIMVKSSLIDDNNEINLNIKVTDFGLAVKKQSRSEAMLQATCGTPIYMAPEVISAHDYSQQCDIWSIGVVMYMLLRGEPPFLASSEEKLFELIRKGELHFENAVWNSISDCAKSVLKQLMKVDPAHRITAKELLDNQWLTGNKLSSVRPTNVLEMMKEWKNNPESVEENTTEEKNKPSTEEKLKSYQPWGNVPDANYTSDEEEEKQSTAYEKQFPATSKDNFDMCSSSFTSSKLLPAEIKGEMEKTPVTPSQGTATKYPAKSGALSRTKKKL
# Chain of Citron Rho-interacting kinase (Homo sapiens) (O14578 whole entry): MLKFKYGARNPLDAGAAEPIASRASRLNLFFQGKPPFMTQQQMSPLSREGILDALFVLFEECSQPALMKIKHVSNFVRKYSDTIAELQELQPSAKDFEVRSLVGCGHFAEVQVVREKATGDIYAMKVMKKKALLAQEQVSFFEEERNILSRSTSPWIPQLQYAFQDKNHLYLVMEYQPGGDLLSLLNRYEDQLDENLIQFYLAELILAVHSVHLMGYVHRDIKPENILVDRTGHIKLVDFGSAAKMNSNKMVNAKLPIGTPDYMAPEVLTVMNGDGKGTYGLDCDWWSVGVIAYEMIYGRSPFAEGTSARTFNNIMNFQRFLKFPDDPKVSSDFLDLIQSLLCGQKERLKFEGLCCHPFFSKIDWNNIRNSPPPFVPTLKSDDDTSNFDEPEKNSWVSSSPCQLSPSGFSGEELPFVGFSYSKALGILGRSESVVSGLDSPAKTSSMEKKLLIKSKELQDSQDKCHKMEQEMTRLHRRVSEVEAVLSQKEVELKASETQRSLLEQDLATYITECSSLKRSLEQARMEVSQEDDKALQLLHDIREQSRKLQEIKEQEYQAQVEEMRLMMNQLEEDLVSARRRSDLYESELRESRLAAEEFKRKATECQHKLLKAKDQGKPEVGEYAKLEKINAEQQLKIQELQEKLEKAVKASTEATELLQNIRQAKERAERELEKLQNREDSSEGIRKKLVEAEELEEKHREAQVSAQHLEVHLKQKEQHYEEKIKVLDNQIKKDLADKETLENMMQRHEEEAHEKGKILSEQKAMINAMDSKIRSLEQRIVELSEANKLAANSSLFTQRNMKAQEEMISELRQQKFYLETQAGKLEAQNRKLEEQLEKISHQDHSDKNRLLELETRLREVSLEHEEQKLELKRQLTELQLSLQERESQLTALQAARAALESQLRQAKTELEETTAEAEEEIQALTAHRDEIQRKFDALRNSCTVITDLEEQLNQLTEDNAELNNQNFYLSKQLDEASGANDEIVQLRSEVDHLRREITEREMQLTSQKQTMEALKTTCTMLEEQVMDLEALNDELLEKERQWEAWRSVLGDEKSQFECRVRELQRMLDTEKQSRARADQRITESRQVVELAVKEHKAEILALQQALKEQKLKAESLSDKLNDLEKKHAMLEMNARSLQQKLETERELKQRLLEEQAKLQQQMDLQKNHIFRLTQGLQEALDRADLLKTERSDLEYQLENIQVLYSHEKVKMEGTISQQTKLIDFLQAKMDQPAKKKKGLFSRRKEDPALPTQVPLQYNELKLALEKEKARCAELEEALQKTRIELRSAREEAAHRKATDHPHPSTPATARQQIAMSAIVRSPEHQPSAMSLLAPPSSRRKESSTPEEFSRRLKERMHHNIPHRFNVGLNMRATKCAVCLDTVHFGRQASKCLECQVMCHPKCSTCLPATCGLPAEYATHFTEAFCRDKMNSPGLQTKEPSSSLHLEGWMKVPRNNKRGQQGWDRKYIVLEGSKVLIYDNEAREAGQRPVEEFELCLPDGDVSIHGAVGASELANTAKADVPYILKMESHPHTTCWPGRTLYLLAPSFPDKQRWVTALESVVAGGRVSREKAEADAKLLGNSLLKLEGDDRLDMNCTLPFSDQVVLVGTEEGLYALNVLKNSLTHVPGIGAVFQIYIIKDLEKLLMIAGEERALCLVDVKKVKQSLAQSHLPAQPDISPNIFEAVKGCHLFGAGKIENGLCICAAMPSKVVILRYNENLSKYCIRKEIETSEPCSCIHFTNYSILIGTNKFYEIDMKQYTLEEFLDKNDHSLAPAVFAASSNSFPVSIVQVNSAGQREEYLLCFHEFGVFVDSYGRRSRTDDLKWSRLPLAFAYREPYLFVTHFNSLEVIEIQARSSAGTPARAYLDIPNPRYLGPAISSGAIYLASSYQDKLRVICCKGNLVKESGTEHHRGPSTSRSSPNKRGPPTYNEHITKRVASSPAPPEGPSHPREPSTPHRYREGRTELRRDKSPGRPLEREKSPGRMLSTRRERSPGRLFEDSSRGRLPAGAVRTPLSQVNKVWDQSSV
# Chain of Myosin light chain kinase, smooth muscle (Q15746 whole entry): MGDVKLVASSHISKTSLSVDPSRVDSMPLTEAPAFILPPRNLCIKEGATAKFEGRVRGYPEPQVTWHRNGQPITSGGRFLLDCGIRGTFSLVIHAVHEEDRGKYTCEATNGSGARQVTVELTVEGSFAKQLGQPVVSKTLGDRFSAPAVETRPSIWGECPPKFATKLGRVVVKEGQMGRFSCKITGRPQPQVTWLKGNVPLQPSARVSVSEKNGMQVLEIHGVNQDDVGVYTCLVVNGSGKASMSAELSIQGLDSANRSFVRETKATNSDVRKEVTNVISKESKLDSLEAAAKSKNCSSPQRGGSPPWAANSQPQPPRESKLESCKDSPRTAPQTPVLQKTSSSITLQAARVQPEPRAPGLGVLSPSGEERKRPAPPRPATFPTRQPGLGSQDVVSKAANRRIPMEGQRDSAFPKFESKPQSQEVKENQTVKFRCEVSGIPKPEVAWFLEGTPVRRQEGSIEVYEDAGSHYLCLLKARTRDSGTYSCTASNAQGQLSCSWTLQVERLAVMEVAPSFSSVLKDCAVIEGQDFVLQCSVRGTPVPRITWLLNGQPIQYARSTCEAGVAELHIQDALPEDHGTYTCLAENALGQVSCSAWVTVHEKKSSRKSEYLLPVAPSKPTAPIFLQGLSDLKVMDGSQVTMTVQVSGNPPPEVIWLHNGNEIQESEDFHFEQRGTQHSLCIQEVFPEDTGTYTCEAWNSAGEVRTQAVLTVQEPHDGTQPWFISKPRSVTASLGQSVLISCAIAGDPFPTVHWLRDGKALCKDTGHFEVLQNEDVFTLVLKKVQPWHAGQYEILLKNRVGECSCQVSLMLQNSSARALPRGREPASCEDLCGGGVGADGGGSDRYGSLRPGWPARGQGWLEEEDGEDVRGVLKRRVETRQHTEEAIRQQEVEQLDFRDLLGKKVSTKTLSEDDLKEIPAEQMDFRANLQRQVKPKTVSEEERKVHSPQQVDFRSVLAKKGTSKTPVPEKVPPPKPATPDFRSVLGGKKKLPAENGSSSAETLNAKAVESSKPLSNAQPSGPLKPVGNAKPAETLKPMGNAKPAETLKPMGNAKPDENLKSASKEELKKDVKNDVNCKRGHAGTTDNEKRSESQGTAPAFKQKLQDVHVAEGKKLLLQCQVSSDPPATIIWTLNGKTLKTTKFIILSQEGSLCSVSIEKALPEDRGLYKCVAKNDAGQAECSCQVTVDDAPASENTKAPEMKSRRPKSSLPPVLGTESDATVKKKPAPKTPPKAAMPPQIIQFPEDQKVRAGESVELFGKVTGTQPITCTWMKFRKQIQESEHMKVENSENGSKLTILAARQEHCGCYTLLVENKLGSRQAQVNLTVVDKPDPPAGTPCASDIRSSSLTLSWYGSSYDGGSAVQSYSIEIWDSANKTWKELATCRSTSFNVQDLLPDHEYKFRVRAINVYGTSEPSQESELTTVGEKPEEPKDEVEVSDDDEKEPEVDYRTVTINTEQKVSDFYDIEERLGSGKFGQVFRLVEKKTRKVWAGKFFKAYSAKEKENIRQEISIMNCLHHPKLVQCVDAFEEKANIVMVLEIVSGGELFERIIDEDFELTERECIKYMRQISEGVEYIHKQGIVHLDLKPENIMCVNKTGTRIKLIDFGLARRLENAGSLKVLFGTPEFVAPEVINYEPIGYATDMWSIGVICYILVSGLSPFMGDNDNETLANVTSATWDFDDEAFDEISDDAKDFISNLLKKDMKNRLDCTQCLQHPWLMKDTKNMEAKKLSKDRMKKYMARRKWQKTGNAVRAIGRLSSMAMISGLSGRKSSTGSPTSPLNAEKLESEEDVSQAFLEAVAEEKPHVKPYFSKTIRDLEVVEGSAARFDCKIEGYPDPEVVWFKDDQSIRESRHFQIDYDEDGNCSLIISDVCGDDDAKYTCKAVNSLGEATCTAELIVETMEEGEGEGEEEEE
# Chain of D(1A) dopamine receptor (P21728 whole entry): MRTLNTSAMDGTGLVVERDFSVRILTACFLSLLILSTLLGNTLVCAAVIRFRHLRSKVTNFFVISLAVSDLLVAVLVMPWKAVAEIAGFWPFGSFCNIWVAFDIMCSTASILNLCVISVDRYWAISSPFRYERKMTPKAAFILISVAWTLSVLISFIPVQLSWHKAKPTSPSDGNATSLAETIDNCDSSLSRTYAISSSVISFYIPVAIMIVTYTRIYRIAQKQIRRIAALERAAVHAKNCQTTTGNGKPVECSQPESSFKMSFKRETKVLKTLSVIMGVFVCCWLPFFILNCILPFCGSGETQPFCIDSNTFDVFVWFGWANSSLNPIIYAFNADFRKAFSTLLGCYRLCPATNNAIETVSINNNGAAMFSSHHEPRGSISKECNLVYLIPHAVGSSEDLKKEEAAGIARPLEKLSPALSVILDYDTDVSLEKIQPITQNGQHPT
smiles,measurement,setting,value
C=CC(=O)Nc1cc(-n2c(=O)ccc3cnc4ccc(-c5ccc(NS(C)(=O)=O)cc5)cc4c32)ccc1C,% of control,[1]; at 1 µM,100%
same,% of control,[1]; at 10 µM,95%
Cc1cc(F)c(C(=O)Nc2cccc(-c3nncn3C(C)C)n2)cc1-n1cnc(C2CC2)c1,% of control,[2],99%
O=C(NOC[C@H](O)CO)c1ccc(F)c(F)c1Nc1ccc(I)cc1F,% of control,[3],100%
Cc1cc(CN)cc(C)c1-c1ncn(C)c1-c1cncn1C,dTM,[4],-1.04 K
Cn1cc(Nc2nccc(N3CC4CCC(C3)N4C(=O)[C@@H]3CC3(F)F)n2)cn1,% of inhibition,[5],96%
O[C@H]1CC[C@H](Nc2ncc3nc(Nc4c(F)cc(F)cc4F)n([C@H]4CCOC4)c3n2)CC1,% of control,[6],94%
CCn1c(-c2nc3cc(C(=O)N4CCCC(N)C4)ccc3n2C)cc2ccccc21 (configuration not stated),pXC50,D(1A) dopamine receptor,4.6 M
CC[C@@H]1[C@H](F)C(=O)N[C@@H]1COc1nccc2cc(C(N)=O)c(OC)cc12 [ZIMLOVISERTIB],% of inhibition,[7],17.3%
same,% of inhibition,[8],7.24%
same,% of inhibition,[9],-74.1%
CN(C)C/C=C/C(=O)Nc1ccc(C(=O)N2CCCC(Nc3ncc(Cl)c(-c4c[nH]c5ccccc45)n3)C2)cc1 (configuration not stated),% of control,[10],99%
